Assay results taken from PubChem BioAssay (NCI).
Several values for one entry are separate records, joined by “and”; a condition that tells them apart may be missing. Equal values may be shown once.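 Exposure lasted 48 hours, with cells grown in 96-well plates and compounds tested at five concentrations. Abbreviation: GI50, concentration required for 50% inhibition of growth. At the TGI there is no net growth.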

Tests used:
Assay in all cases: NCI anticancer screen, dose series, 48 h
NCI-H460 lung = system: NCI-H460 lung
EKVX NSCLC = system: EKVX NSCLC
UACC-62 melanoma = system: UACC-62 melanoma
LXFL 529 NSCLC = system: LXFL 529 NSCLC
NCI-H23 lung = system: NCI-H23 lung
SW-620 colon = system: SW-620 colon
HL-60(TB) leukemia = system: HL-60(TB) leukemia
SN12C renal = system: SN12C renal
HS 578T breast = system: HS 578T breast
DMS 114 small cell lung = system: DMS 114 small cell lung

N.N.N.N.N.NC(=O)c1nn[n-]n1.[Cl-].[Co+3]
GI50 (NCI-H460 lung): > 100 µM | TGI (NCI-H460 lung): > 100 µM | GI50 (EKVX NSCLC): > 100 µM | TGI (EKVX NSCLC): > 100 µM | GI50 (UACC-62 melanoma): > 100 µM | TGI (UACC-62 melanoma): > 100 µM | GI50 (LXFL 529 NSCLC): > 100 µM | TGI (LXFL 529 NSCLC): > 100 µM | GI50 (NCI-H23 lung): > 100 µM | TGI (NCI-H23 lung): > 100 µM | GI50 (SW-620 colon): > 100 µM | TGI (SW-620 colon): > 100 µM | GI50 (HL-60(TB) leukemia): > 100 µM | TGI (HL-60(TB) leukemia): > 100 µM | GI50 (SN12C renal): > 100 µM | TGI (SN12C renal): > 100 µM

CCCCCCCCCCCc1nnc(N)o1
TGI (NCI-H460 lung): > 100 µM | TGI (UACC-62 melanoma): > 100 µM | TGI (LXFL 529 NSCLC): > 100 µM | TGI (NCI-H23 lung): > 100 µM | TGI (SW-620 colon): > 100 µM | TGI (HL-60(TB) leukemia): > 100 µM | TGI (SN12C renal): > 100 µM

CCN(Cc1ccc(Cl)cc1)c1ccc(CO)c(Cl)c1
GI50 (NCI-H460 lung): 0.348 µM | TGI (NCI-H460 lung): 10.9 µM | GI50 (EKVX NSCLC): 12.4 µM | TGI (EKVX NSCLC): 29.1 µM | GI50 (UACC-62 melanoma): 0.0929 µM | TGI (UACC-62 melanoma): 0.719 µM | GI50 (NCI-H23 lung): 3.23 µM | TGI (NCI-H23 lung): 22.8 µM | GI50 (SW-620 colon): 0.824 µM | TGI (SW-620 colon): 16.4 µM | GI50 (HL-60(TB) leukemia): 3.17 µM | TGI (HL-60(TB) leukemia): 20.8 µM | GI50 (HS 578T breast): 6.09 µM | TGI (HS 578T breast): 31.5 µM | GI50 (SN12C renal): 4.35 µM | TGI (SN12C renal): 19.3 µM

C[C@]12CC[C@@H]3c4ccc(OC(=O)N(CCCl)CCCl)cc4CC[C@H]3[C@@H]1CC[C@@H]2O
GI50 (NCI-H460 lung): 2.75 µM | TGI (NCI-H460 lung): 12.9 µM | GI50 (EKVX NSCLC): 3.26 µM | GI50 (UACC-62 melanoma): 1.41 µM | TGI (UACC-62 melanoma): 16.2 µM | GI50 (NCI-H23 lung): 2.79 µM | GI50 (SW-620 colon): 1.58 µM | GI50 (HL-60(TB) leukemia): 0.731 µM | GI50 (HS 578T breast): 1.89 µM | TGI (HS 578T breast): 10.8 µM | GI50 (SN12C renal): 3.37 µM | TGI (SN12C renal): 17.4 µM and 3.48 µM

O=C1C(Cl)=C(Nc2cccc(Cl)c2)C(=O)N1Cc1ccc(Cl)cc1
GI50 (NCI-H460 lung): 0.538 µM | TGI (NCI-H460 lung): 15.7 µM | GI50 (EKVX NSCLC): 6.78 µM | TGI (EKVX NSCLC): 23.7 µM | GI50 (UACC-62 melanoma): 0.779 µM | TGI (UACC-62 melanoma): 4.68 µM | GI50 (NCI-H23 lung): 0.378 µM | TGI (NCI-H23 lung): 2.12 µM | GI50 (SW-620 colon): 0.323 µM | TGI (SW-620 colon): 9.97 µM | GI50 (HL-60(TB) leukemia): 1.65 µM | TGI (HL-60(TB) leukemia): 15.7 µM | GI50 (HS 578T breast): 0.913 µM | TGI (HS 578T breast): 11.1 µM | GI50 (SN12C renal): 1.24 µM | TGI (SN12C renal): 5.93 µM

CCN1C(=O)N(CC)C2C1NN=c1s/c(=C\c3cccc(F)c3)c(=O)n12 (centres undefined)
GI50 (NCI-H460 lung): 0.217 µM | TGI (NCI-H460 lung): 15.1 µM | GI50 (EKVX NSCLC): 0.657 µM | TGI (EKVX NSCLC): > 100 µM | GI50 (UACC-62 melanoma): 0.0539 µM | TGI (UACC-62 melanoma): > 100 µM | GI50 (NCI-H23 lung): 0.522 µM | TGI (NCI-H23 lung): > 100 µM | GI50 (SW-620 colon): 0.0845 µM | TGI (SW-620 colon): > 100 µM | GI50 (HL-60(TB) leukemia): 0.0582 µM | TGI (HL-60(TB) leukemia): 0.46 µM | GI50 (HS 578T breast): 0.0899 µM | TGI (HS 578T breast): > 100 µM | GI50 (SN12C renal): 0.38 µM | TGI (SN12C renal): > 100 µM

O=C(O)CCCSC(=O)Nc1ccc(N=Nc2ccccc2)cc1
TGI (NCI-H460 lung): > 100 µM | TGI (EKVX NSCLC): > 100 µM | TGI (UACC-62 melanoma): > 100 µM | TGI (LXFL 529 NSCLC): > 100 µM | TGI (NCI-H23 lung): > 100 µM | TGI (SW-620 colon): > 100 µM | TGI (SN12C renal): > 100 µM | TGI (DMS 114 small cell lung): > 100 µM

CCOc1cccc(/C=N/N=C2\C(=O)Nc3c(Cl)cc(Cl)cc32)c1O
TGI (NCI-H460 lung): > 100 µM | TGI (EKVX NSCLC): > 100 µM | TGI (UACC-62 melanoma): > 100 µM | TGI (NCI-H23 lung): > 100 µM | TGI (SW-620 colon): > 100 µM | TGI (HL-60(TB) leukemia): > 100 µM | TGI (HS 578T breast): > 100 µM | TGI (SN12C renal): > 100 µM

CC1(C)O[C@H]2[C@H](O)C[C@](O)(CO)C[C@H]2O1
TGI (NCI-H460 lung): > 100 µM | TGI (EKVX NSCLC): > 100 µM | TGI (UACC-62 melanoma): > 100 µM | TGI (LXFL 529 NSCLC): > 100 µM | TGI (NCI-H23 lung): > 100 µM | TGI (SW-620 colon): > 100 µM | TGI (SN12C renal): > 100 µM | TGI (DMS 114 small cell lung): > 100 µM

C[C@@]1(C(=O)O)CCC[C@]2(C)C1CC[C@@]13CC(=O)[C@@](CO)(CC[C@]12O)C3 (some centres undefined)
GI50 (NCI-H460 lung): > 100 µM | TGI (NCI-H460 lung): > 100 µM | GI50 (EKVX NSCLC): > 100 µM | TGI (EKVX NSCLC): > 100 µM | GI50 (UACC-62 melanoma): > 100 µM | TGI (UACC-62 melanoma): > 100 µM | GI50 (NCI-H23 lung): > 100 µM | TGI (NCI-H23 lung): > 100 µM | GI50 (SW-620 colon): > 100 µM | TGI (SW-620 colon): > 100 µM | GI50 (HL-60(TB) leukemia): > 100 µM | TGI (HL-60(TB) leukemia): > 100 µM | GI50 (HS 578T breast): > 100 µM | TGI (HS 578T breast): > 100 µM | GI50 (SN12C renal): > 100 µM | TGI (SN12C renal): > 100 µM

Clc1nc(Cl)c2ncn(CC3(Cn4cnc5c(Cl)nc(Cl)nc54)COC3)c2n1
GI50 (NCI-H460 lung): 0.222 µM | TGI (NCI-H460 lung): 0.447 µM | GI50 (EKVX NSCLC): 0.821 µM | TGI (EKVX NSCLC): 2.43 µM | GI50 (UACC-62 melanoma): 0.283 µM | TGI (UACC-62 melanoma): 0.903 µM | GI50 (NCI-H23 lung): 0.194 µM | TGI (NCI-H23 lung): 0.392 µM | GI50 (SW-620 colon): 0.257 µM | TGI (SW-620 colon): 0.651 µM | GI50 (HL-60(TB) leukemia): 0.354 µM | TGI (HL-60(TB) leukemia): 2.78 µM | GI50 (HS 578T breast): 0.316 µM | TGI (HS 578T breast): 0.868 µM | GI50 (SN12C renal): 0.26 µM | TGI (SN12C renal): 0.776 µM

CC1=C(c2ccccc2)C(c2ccccc2)=C(c2ccccc2)C2(c3ccccc3)C(=O)C(C)CN12 (centres undefined)
TGI (NCI-H460 lung): > 100 µM | TGI (EKVX NSCLC): > 100 µM | TGI (UACC-62 melanoma): > 100 µM | TGI (LXFL 529 NSCLC): > 100 µM | TGI (SW-620 colon): > 100 µM | TGI (SN12C renal): > 100 µM

O=C1N(C2CCCCC2)CC12CCCCC2
TGI (NCI-H460 lung): > 100 µM | TGI (EKVX NSCLC): > 100 µM | TGI (UACC-62 melanoma): > 100 µM | TGI (NCI-H23 lung): > 100 µM | TGI (SW-620 colon): > 100 µM | TGI (HL-60(TB) leukemia): > 100 µM | TGI (SN12C renal): > 100 µM | TGI (DMS 114 small cell lung): > 100 µM

C=CCNC(=O)N(CCCCC(NC(C)=O)C(=O)NCc1ccccc1)Cc1ccccc1 (centres undefined)
TGI (NCI-H460 lung): > 100 µM | TGI (EKVX NSCLC): > 100 µM | TGI (UACC-62 melanoma): > 100 µM | TGI (LXFL 529 NSCLC): > 100 µM | TGI (NCI-H23 lung): > 100 µM | TGI (SW-620 colon): > 100 µM | TGI (HL-60(TB) leukemia): > 100 µM | TGI (SN12C renal): > 100 µM

COc1ncnc2c(-c3ccccc3)cn(COCc3ccccc3)c12
GI50 (NCI-H460 lung): 3.54 µM | TGI (NCI-H460 lung): 23 µM | GI50 (EKVX NSCLC): 2.37 µM | TGI (EKVX NSCLC): > 100 µM | GI50 (UACC-62 melanoma): 2.1 µM | TGI (UACC-62 melanoma): 8.81 µM | GI50 (NCI-H23 lung): 3.02 µM | TGI (NCI-H23 lung): > 100 µM | GI50 (SW-620 colon): 4.6 µM | TGI (SW-620 colon): > 100 µM | GI50 (HL-60(TB) leukemia): 3.22 µM | TGI (HL-60(TB) leukemia): 18.1 µM | GI50 (HS 578T breast): 7.8 µM | TGI (HS 578T breast): > 100 µM | GI50 (SN12C renal): 3.12 µM | TGI (SN12C renal): 30 µM

Oc1c(-c2nnc(-c3ccccc3Cl)o2)sc2nnc(-c3ccccc3)c(-c3ccccc3)c12
GI50 (NCI-H460 lung): 1.73 µM | TGI (NCI-H460 lung): 15.3 µM | GI50 (EKVX NSCLC): 3.1 µM | TGI (EKVX NSCLC): 32.2 µM | GI50 (UACC-62 melanoma): 2.64 µM | TGI (UACC-62 melanoma): 9.49 µM | GI50 (NCI-H23 lung): 4.87 µM | TGI (NCI-H23 lung): > 100 µM | GI50 (SW-620 colon): 4.07 µM | TGI (SW-620 colon): 25.3 µM | GI50 (HL-60(TB) leukemia): 4.16 µM | TGI (HL-60(TB) leukemia): > 100 µM | GI50 (HS 578T breast): 3.78 µM | TGI (HS 578T breast): > 100 µM | GI50 (SN12C renal): 4.29 µM | TGI (SN12C renal): 90.5 µM

COc1ccc(C(=S)N2CCN(c3cccc(C)c3)CC2)cc1OC
GI50 (NCI-H460 lung): 3.38 µM | TGI (NCI-H460 lung): > 100 µM | GI50 (EKVX NSCLC): 7.05 µM | TGI (EKVX NSCLC): > 100 µM | GI50 (UACC-62 melanoma): 4.1 µM | TGI (UACC-62 melanoma): > 100 µM | GI50 (NCI-H23 lung): 9.08 µM | TGI (NCI-H23 lung): > 100 µM | GI50 (SW-620 colon): 3.04 µM | TGI (SW-620 colon): > 100 µM | GI50 (HL-60(TB) leukemia): 1.83 µM | TGI (HL-60(TB) leukemia): > 100 µM | GI50 (HS 578T breast): 3.16 µM | TGI (HS 578T breast): 31.7 µM | GI50 (SN12C renal): 6.85 µM | TGI (SN12C renal): > 100 µM
